One test concerns the target T1, C4760 DNA polymerase (a variant of DPO4, SEQ ID NO:2) (Saccharolobus solfataricus, UniProt Q97W02, A155G/A42V/D156R/D292Y/D294N/E291S/E324K/E325K/E327K/E63R/E79L/G187P/G299W/I153V/I189F/I248T/I295S/K152A/K317Q/K321Q/K56Y/K78D/L293W/M76W/N188Y/P184Q/Q82W/Q83G/R300S/S297Y/S86E/T290K/T301W/V289W/V296Q).
T1 construct: made in house
The experiment in a line: Primer extension assay with the HIV2 100mer template. The settings on record: 0.5, 1, 1.52, or 2.5 Mm PEM; HIV2 100mer template; Eco SSB; 30 minutes at 23° C.; FIG. 11. The format is biochemical, Sulfolobus solfataricus. The procedure: PEM activity of compound 12 was tested in primer extension assays using the HIV2 100mer template. Primer extension reactions included the following reagents: 50 Mm TrisCl, 200 Mm NH4Oac, 20% PEG8K, 5% NMS, 0.6 nmol PP-60.20, 0.6 Mm MnCl2, 2.75 μg/μl Eco single-strand binding protein (SSB), 1 M urea, 50 pmol each XNTP, 1.1 pmol template, 1 pmol oligonucleotide primer, 1.2 μg/μl purified recombinant C4760 DNA polymerase (SEQ ID NO:2), and 0.5, 1, or 1.5 Mm PEM. 10 μL primer extension reactions were run for 30 minutes at 23° C. and reaction products were analyzed by gel electrophoresis. […] Lanes 2-4 show primer extension products from reactions with a structurally related additive lacking robust PEM activity.
PEM activity of compounds 13 and 14 was tested in primer extension assays using the HIV2 100mer template. Primer extension reactions included the following reagents: 50 Mm TrisCl, 200 Mm NH4Oac, 20% PEG8K, 5% NMS, 0.6 nmol PP-60.20, 0.6 Mm MnCl2, 2.75 μg/μl Eco single-strand binding protein (SSB), 1 M urea, 50 pmol each XNTP, 1.1 pmol template, 1 pmol oligonucleotide primer, 1.2 μg/μl purified recombinant C4760 DNA polymerase (a variant of DPO4, see SEQ ID NO:2), and 0.5, 1, 1.52, or 2.5 Mm PEM. 10 μL primer extension reactions were run for 30 minutes at 23° C. and reaction products were analyzed by gel electrophoresis. A representative gel showing primer extension products is presented in FIG. 11 (the position of the full length HIV2 100mer is indicated by the arrow).
PEM activity of compounds 16, 17, and 18 and combinations thereof were tested in primer extension assays using the HIV2-derived 100mer template. Primer extension reactions included the following reagents: 50 Mm TrisCl, 200 Mm NH4Oac, 20% or 25% PEG8K, 5% NMS, 0.6 nmol PP-60.20, 0.6 Mm MnCl2, 2 μg Kod single-strand binding protein (SSB), 1 M urea, 50 pmol each XNTP, 1 pmol template, 1 pmol oligonucleotide primer, 1.2 μg purified recombinant C4760 DNA polymerase (a variant of DPO4, see SEQ ID NO:2), and 0.5-2 Mm PEM. 10 μL primer extension reactions were run for 30 minutes at 37° C. and reaction products were analyzed by gel electrophoresis. A representative gel showing primer extension products is presented in FIG. 13 (the position of a 100mer product is indicated by the arrow).
T1 sequence (Q97W02 other isoform, or with tags, fused parts or gaps with the stated changes): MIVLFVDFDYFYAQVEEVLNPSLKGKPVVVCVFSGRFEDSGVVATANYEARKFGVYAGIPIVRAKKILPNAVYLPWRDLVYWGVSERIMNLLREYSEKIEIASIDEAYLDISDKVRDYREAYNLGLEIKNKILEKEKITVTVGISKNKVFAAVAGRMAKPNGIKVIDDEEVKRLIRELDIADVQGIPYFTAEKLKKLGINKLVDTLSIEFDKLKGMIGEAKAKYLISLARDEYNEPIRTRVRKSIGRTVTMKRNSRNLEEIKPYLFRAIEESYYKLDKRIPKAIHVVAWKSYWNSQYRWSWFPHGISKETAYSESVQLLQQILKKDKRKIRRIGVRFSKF
With `CCOC(=O)c1cc(-c2cn(-c3ccc(C(=O)O)c(O)c3)nn2)nc(-c2cn(-c3ccc(C(=O)O)c(O)c3)nn2)c1` [Compound 14, 4,4′-((4-(ethoxycarbonyl)pyridine-2,6-diyl)bis(1H-1,2,3-triazole-4,1-diyl))bis(2-hydroxybenzoic acid)], the “polymerization of XNTPs into full length Xpandomer copies (PEM activity)” value (“polymerization … (PEM activity)” for short) is listed as “enables polymerization of XNTPs into full length Xpandomer copies of the 100mer template in a manner comparable to that of compound 10”.
On to `Cc1cc(-c2cn(-c3ccc(C(=O)O)c(O)c3)nn2)nc(-c2cn(-c3ccc(C(=O)O)c(O)c3)nn2)c1` [Compound 13, 4,4′-((4-methylpyridine-2,6-diyl)bis(1H-1,2,3-triazole-4,1-diyl))bis(2-hydroxybenzoic acid)], for which the “polymerization … (PEM activity)” value is recorded as “enables polymerization of XNTPs into full length Xpandomer copies of the 100mer template in a manner comparable to that of compound 10”.

The same test, now with this note: 0.5, 1, or 1.5 Mm PEM; HIV2 100mer template; Eco SSB; 30 minutes at 23° C.; FIG. 10.
With `N#Cc1cc(-c2cn(-c3ccc(O)c(C(=O)O)c3)nn2)nc(-c2cn(-c3ccc(O)c(C(=O)O)c3)nn2)c1` [Compound 12, 5,5′-((4-cyanopyridine-2,6-diyl)bis(1H-1,2,3-triazole-4,1-diyl))bis(2-hydroxybenzoic acid)], the “polymerization … (PEM activity)” value was “enables polymerization of XNTPs into full length Xpandomer copies of the 100mer template”.

Still in this test, the particulars now being: combination of 2 Mm compound 14 and 0.1 Mm or 0.3 Mm compound 17; HIV2-derived 100mer template; FIG. 13 lanes 7-9.
Consider `CCOC(=O)c1cc(-c2cn(-c3ccc(C(=O)O)c(O)c3)nn2)nc(-c2cn(-c3ccc(C(=O)O)c(O)c3)nn2)c1` [Compound 14, 4,4′-((4-(ethoxycarbonyl)pyridine-2,6-diyl)bis(1H-1,2,3-triazole-4,1-diyl))bis(2-hydroxybenzoic acid)], for which the “polymerization of XNTPs into lengthy Xpandomer copies, combination of PEMs” value is “also enabled polymerization of XNTPs into lengthy Xpandomer copies of the 100mer template”.

The test is the same for the next values; noted with them: combination of 2 Mm compound 16 and 0.1 Mm or 0.3 Mm compound 18; HIV2-derived 100mer template; FIG. 13 lanes 10-12.
Take `CNC(=O)c1cc(-c2cn(-c3ccc(C(=O)O)c(O)c3)nn2)nc(-c2cn(-c3ccc(C(=O)O)c(O)c3)nn2)c1` [Compound 18, 4,4′-((4-(methylcarbamoyl)pyridine-2,6-diyl)bis(1H-1,2,3-triazole-4,1-diyl))bis(2-hydroxybenzoic acid)]: the “polymerization of XNTPs into full length copies, combination of PEMs” value is recorded as “enable polymerization of XNTPS into full length copies of the 100mer template”.

Another test addresses T1, C4760 DNA polymerase (a variant of DPO4, SEQ ID NO:2). The experiment in a line: Primer extension on a 45mer RNA template derived from the HIV2 genome sequence. The test is classed as biochemical, Sulfolobus solfataricus. The settings on record: 2 Mm PEM; 45mer RNA template from HIV2 genome; 30 minutes at 37° C. Here is the method: To begin to investigate the potential of PEMs to enhance diverse polymerase reactions, the ability of PEMS to enable DNA polymerase to utilize RNA as a template was tested. An initial screen of several compounds set forth in Table I was conducted using a 45mer RNA template derived from the HIV2 genome sequence. Primer extension reactions included the following reagents: 50 Mm TrisCl, 200 Mm NH4Oac, 20% PEG8K, 5% NMS, 0.6 nmol PP-60.20, 0.6 Mm MnCl2, 2 μg Kod single-strand binding protein (SSB), 1 M urea, 50 pmol each XNTP, 0.5 pmol template, 0.5 pmol oligonucleotide primer, 1.2 μg purified recombinant C4760 DNA polymerase (a variant of DPO4, see SEQ ID NO:2), and 2 Mm PEM. 10 μL primer extension reactions were run for 30 minutes at 37° C. and reaction products were analyzed by gel electrophoresis.
For the molecule `O=C(O)c1ccc(-n2cc(-c3ccc(-c4cn(-c5ccc(C(=O)O)c(C(F)(F)F)c5)nn4)o3)nn2)cc1C(F)(F)F` [Compound 118, 4,4′-(furan-2,5-diylbis(1H-1,2,3-triazole-4,1-diyl))bis(2-(trifluoromethyl)benzoic acid)], the “PEM activity on an RNA template” value is “display PEM activity on an RNA template”.
Take `CCNC(=O)c1cc(-n2cc(-c3ccc(C(=O)O)c(C(F)(F)F)c3)nn2)cc(-n2cc(-c3ccc(C(=O)O)c(C(F)(F)F)c3)nn2)c1` [Compound 116, 4,4′-((5-(ethylcarbamoyl)-1,3-phenylene)bis(1H-1,2,3-triazole-1,4-diyl))bis(2-(trifluoromethyl)benzoic acid)]: the “PEM activity on an RNA template” value is recorded as “display PEM activity on an RNA template”.
The same measure, in the same setting: for `CCN(CC)C(=O)c1cc(-c2cn(-c3ccc(C(=O)O)c(O)c3)nn2)nc(-c2cn(-c3ccc(C(=O)O)c(O)c3)nn2)c1` [Compound 49, 4,4′-((4-(diethylcarbamoyl)pyridine-2,6-diyl)bis(1H-1,2,3-triazole-4,1-diyl))bis(2-hydroxybenzoic acid)] the value was “display PEM activity on an RNA template”.
With `O=C(O)c1ccc(-n2cc(-c3cc(C(=O)N4CCOCC4)cc(-c4cn(-c5ccc(C(=O)O)c(O)c5)nn4)n3)nn2)cc1O` [Compound 51, 4,4′-((4-(morpholine-4-carbonyl)pyridine-2,6-diyl)bis(1H-1,2,3-triazole-4,1-diyl))bis(2-hydroxybenzoic acid)], the “PEM activity on an RNA template” value is on record as “display PEM activity on an RNA template”.
For the molecule `CCNC(=O)c1cc(-c2cn(-c3ccc(C(F)(F)F)c(C(=O)O)c3)nn2)nc(-c2cn(-c3ccc(C(F)(F)F)c(C(=O)O)c3)nn2)c1` [Compound 75, 5,5′-((4-(ethylcarbamoyl)pyridine-2,6-diyl)bis(1H-1,2,3-triazole-4,1-diyl))bis(2-(trifluoromethyl)benzoic acid)], the “PEM activity on an RNA template” value is recorded as “display PEM activity on an RNA template”.
On the same count and under the same terms, the entry for `O=C(NCCO)c1cc(-c2cn(-c3ccc(C(=O)O)c(C(F)(F)F)c3)nn2)nc(-c2cn(-c3ccc(C(=O)O)c(C(F)(F)F)c3)nn2)c1` [Compound 105, 4,4′-((4-((2-hydroxyethyl)carbamoyl)pyridine-2,6-diyl)bis(1H-1,2,3-triazole-4,1-diyl))bis(2-(trifluoromethyl)benzoic acid)] is “display PEM activity on an RNA template”.
Same read-out and setting: the entry for `CCNC(=O)c1cc(-c2cn(-c3ccc(C(=O)NCC(=O)O)c(C(F)(F)F)c3)nn2)nc(-c2cn(-c3ccc(C(=O)NCC(=O)O)c(C(F)(F)F)c3)nn2)c1` [Compound 110, 2,2′-((4,4′-((4-(ethylcarbamoyl)pyridine-2,6-diyl)bis(1H-1,2,3-triazole-4,1-diyl))bis(2-(trifluoromethyl)benzoyl))bis(azanediyl))diacetic acid] is “display PEM activity on an RNA template”; for `CCNC(=O)c1cc(-c2cn(-c3cc(C(=O)O)cc(C(F)(F)F)c3)nn2)nc(-c2cn(-c3cc(C(=O)O)cc(C(F)(F)F)c3)nn2)c1` [Compound 93, 5,5′-((4-(ethylcarbamoyl)pyridine-2,6-diyl)bis(1H-1,2,3-triazole-4,1-diyl))bis(3-(trifluoromethyl)benzoic acid)] it is “display PEM activity on an RNA template”; for `CCNC(=O)c1cc(-c2cn(-c3ccc(C(=O)O)c(C(F)(F)F)c3)nn2)nc(-c2cn(-c3ccc(C(=O)O)c(C(F)(F)F)c3)nn2)c1` [Compound 73, 4,4′-((4-(ethylcarbamoyl)pyridine-2,6-diyl)bis(1H-1,2,3-triazole-4,1-diyl))bis(2-(trifluoromethyl)benzoic acid)] it is “display PEM activity on an RNA template”.
Same read-out and setting: for `CCNC(=O)c1cc(-c2cn(-c3ccc(C(=O)O)c([N+](=O)[O-])c3)nn2)nc(-c2cn(-c3ccc(C(=O)O)c([N+](=O)[O-])c3)nn2)c1` [Compound 106, 4,4′-((4-(ethylcarbamoyl)pyridine-2,6-diyl)bis(1H-1,2,3-triazole-4,1-diyl))bis(2-nitrobenzoic acid)] the value was “display PEM activity on an RNA template”; for `CCNC(=O)c1cc(-c2cn(-c3ccc(C(=O)O)c(F)c3)nn2)nc(-c2cn(-c3ccc(C(=O)O)c(F)c3)nn2)c1` [Compound 76, 4,4′-((4-(ethylcarbamoyl)pyridine-2,6-diyl)bis(1H-1,2,3-triazole-4,1-diyl))bis(2-fluorobenzoic acid)], “display PEM activity on an RNA template”.
